# The source made the active and inactive calls.
# What was measured:
# [1] = Luminescence Cell-Based Dose Response HTS to Identify Inhibitors of 5'UTR Stem-Loop Driven Prion Protein mRNA Translation in H4 Neuroglioblastoma Cells. [Related pubchem assays: 1827 (Project Summary), 1813 (Primary HTS)]; format: functional
# [2] = target: T1, Zinc finger protein mex-5 (Caenorhabditis elegans, UniProt Q9XUB2); assay: MEX-5/TCR-2 RNA interaction inhibitors, dose response, biochemical, C. elegans, fluorescence polarization (AID 1960)
# T1 sequence (Q9XUB2 whole entry): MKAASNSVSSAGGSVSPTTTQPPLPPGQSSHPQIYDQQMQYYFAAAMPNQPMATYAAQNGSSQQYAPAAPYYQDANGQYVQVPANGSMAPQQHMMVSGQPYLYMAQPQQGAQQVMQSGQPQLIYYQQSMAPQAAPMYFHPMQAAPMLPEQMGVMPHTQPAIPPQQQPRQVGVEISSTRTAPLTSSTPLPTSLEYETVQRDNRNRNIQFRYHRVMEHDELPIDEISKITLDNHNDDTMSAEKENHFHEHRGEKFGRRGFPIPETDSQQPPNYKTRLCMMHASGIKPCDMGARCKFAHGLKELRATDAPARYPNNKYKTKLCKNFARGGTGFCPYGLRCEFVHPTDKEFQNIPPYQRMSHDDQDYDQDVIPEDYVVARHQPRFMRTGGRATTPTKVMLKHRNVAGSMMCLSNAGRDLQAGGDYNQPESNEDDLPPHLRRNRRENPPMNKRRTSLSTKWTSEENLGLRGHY
# [3] = Luminescence-based cell-based high throughput dose response assay to identify activators of the DAF-12 from the parasite S. stercoralis (ssDAF-12).; format: functional
# [4] = inhibitors of SNCA 5'UTR-driven reporter translation, confirmation, H4 neuroglioma cells, luminescence (AID 1988); format: functional, cell-based
# [5] = target: T2, RNA-binding protein pos-1 (Caenorhabditis elegans, UniProt G5EF15); assay: inhibitors of POS-1/mex-3 RNA binding, dose response, biochemical, fluorescence polarization (AID 1964);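 also: purified POS-1 fused to maltose binding protein made in E. coli; potency of compounds blocking POS-1 binding to fluorescent RNA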
# T2 sequence (G5EF15 whole entry): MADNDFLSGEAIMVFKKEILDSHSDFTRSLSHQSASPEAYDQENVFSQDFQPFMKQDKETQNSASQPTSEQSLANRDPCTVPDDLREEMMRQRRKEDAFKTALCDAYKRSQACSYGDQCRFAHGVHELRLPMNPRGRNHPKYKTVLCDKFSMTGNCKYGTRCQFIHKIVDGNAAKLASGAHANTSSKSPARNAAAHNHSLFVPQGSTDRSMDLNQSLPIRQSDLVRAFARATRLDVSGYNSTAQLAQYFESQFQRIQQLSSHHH
# [6] = target: T3, Oxysterols receptor LXR-beta (Homo sapiens, UniProt P55055); format: functional, cell-based;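 also: Cell-based luminescence dose-response assay of agonist activity at LXR, run as a confirmatory counterscreen to a daf-12 agonist screen; HEK293 cells with Gal4-LXR fusion and GAL4-driven luciferase reporter; agonist potency from rising luciferase signal of a Gal4-LXR reporter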
# T3 sequence (P55055 whole entry): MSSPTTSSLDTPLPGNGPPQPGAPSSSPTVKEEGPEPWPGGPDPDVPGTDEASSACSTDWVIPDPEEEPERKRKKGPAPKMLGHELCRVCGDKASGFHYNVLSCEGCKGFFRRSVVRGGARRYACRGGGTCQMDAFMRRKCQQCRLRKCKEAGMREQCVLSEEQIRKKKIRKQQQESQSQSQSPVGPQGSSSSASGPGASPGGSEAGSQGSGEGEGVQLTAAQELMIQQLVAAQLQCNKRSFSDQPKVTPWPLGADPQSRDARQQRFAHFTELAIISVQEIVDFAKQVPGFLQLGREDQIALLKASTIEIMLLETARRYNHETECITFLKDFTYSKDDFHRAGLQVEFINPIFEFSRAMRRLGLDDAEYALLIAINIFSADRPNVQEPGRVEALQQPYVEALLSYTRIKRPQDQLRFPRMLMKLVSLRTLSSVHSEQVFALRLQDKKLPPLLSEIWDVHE
# [7] = target: Endoplasmic reticulum aminopeptidase 1 (Homo sapiens, UniProt Q9NZ08); assay: ERAP1 aminopeptidase inhibitors, dose response, biochemical, cherry-pick, set 2, plate reader (AID 743314)
# Sequence of Endoplasmic reticulum aminopeptidase 1 (Q9NZ08 whole entry): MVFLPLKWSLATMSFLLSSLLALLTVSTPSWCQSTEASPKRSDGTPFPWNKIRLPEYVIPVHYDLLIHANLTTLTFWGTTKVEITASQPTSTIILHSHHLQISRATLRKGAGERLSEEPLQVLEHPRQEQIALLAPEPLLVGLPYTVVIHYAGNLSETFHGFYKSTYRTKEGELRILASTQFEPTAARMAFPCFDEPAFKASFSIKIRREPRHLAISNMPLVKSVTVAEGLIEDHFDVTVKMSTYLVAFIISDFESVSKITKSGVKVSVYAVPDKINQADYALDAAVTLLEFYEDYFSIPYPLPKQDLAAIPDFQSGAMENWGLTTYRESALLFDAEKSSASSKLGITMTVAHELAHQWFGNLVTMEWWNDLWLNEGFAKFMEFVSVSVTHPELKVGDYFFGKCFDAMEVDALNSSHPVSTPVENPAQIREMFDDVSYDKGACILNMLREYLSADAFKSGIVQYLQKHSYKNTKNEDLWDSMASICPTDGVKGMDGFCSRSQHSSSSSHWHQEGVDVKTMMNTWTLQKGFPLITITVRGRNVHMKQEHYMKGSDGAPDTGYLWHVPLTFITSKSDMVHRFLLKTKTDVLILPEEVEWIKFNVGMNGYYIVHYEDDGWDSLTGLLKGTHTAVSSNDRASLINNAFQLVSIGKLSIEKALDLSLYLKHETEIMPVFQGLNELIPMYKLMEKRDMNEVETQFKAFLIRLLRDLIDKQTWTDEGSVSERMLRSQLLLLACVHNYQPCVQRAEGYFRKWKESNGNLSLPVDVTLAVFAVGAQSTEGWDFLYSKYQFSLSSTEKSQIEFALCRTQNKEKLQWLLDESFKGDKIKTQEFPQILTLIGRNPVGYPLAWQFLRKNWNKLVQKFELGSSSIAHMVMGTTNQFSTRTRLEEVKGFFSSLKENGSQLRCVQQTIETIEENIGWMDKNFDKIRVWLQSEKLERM
# [8] = Glucagon-like peptide 1 release potency, NCI-H716 cell line, dose-response, half-maximal inhibitory concentration (AID 1117344); format: functional, cell-based
# [9] = half-maximal inhibitory concentration for glucagon-like peptide-1 release, STC-1 cell line, dose-response (AID 1117345); format: functional, cell-based
# Genome polyprotein = Genome polyprotein (Hepatitis C virus, UniProt Q2Q167); assay: HCV core protein dimerization inhibitors, dose response, biochemical, TR-FRET (AID 2159); parameters: species or system Hepacivirus hominis;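 also: blocks dimerization of HCV core protein measured by TR-FRET between tagged core106 pairs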
# Sequence of Genome polyprotein (Q2Q167 whole entry): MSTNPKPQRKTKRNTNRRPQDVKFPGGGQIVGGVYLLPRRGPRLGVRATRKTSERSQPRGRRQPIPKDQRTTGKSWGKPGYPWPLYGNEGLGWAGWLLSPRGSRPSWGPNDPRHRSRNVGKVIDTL
# [10] = target: RNA-editing ligase 1, mitochondrial (Trypanosoma brucei brucei, UniProt P86926); assay: TbREL1 ligase inhibitors, dose response, biochemical, fluorescence, Trypanosoma brucei (AID 1117295); format: functional
# Sequence of RNA-editing ligase 1, mitochondrial (P86926 whole entry): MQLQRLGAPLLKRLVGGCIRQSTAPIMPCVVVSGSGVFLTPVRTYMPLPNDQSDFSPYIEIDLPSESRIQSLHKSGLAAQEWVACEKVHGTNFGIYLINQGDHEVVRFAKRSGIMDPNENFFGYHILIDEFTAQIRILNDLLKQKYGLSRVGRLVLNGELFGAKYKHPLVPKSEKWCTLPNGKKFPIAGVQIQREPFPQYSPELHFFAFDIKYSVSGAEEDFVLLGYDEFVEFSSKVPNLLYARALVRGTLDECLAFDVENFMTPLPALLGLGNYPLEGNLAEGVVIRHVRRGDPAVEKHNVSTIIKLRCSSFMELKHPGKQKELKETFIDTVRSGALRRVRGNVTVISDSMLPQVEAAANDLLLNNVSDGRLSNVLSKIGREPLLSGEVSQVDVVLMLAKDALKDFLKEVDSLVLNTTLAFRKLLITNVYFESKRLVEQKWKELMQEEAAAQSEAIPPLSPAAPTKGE
# [11] = cytotoxicity in OV-90 ovarian cancer cells, dose response, PAX8 inhibitor project, cell-based, plate reader, dry powder, SA8 (AID 743149); format: functional
# [12] = cytotoxicity in COV362 ovarian cancer cells, dose response, cytotoxicity control for PAX8 inhibitor project, cell-based, plate reader, dry powder, SA12 (AID 743144); format: functional
# [13] = PAX5 activity inhibitors, dose response, selectivity assay for PAX8 inhibitor project, cell-based, plate reader, dry powder samples (AID 743047); format: functional;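 also: HEK293 cells carrying a Pax5 driven CD19 promoter luciferase reporter; potency of inhibitors that lower reporter luminescence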
# [14] = cytotoxicity in COV434 cells, dose response, cytotoxicity control for PAX8 inhibitor project, cell-based, plate reader, dry powder, SA7 (AID 743145); format: functional
# [15] = NIH:OVCAR-3 ovarian cancer cell cytotoxicity, dose response, PAX8 inhibitor project, plate reader, dry powder samples (AID 743044); format: functional, cell-based
# Paired box protein Pax-8 = Paired box protein Pax-8 (Homo sapiens, UniProt Q06710); assay: inhibitors of PAX8-driven TPO luciferase reporter, dose response, RMG-I cells, cherry-pick (AID 687027); format: functional, cell-based;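 also: luciferase reporter driven by Pax8 target thyroperoxidase promoter measured by SteadyGlo luminescence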
# Sequence of Paired box protein Pax-8 (Q06710 whole entry): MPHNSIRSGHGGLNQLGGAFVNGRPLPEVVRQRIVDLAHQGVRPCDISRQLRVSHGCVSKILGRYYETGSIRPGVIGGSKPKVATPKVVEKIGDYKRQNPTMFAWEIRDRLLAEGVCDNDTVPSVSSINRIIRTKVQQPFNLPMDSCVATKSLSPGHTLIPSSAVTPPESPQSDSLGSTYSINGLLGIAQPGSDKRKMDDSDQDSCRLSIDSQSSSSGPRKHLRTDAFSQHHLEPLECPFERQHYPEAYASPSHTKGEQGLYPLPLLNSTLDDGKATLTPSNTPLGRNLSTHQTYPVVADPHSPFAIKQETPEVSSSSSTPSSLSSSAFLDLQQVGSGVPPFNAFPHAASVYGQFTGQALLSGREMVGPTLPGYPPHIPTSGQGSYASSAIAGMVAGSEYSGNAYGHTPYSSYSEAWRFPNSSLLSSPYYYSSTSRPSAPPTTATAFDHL
# [16] = PAX2 cell-based inhibition, dose response, selectivity assay for PAX8 inhibitor project, plate reader, dry powder samples (AID 743048); format: functional;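 also: HEK293 cells carrying a WT1 promoter luciferase reporter driven by expressed Pax2; potency is for inhibition of Pax2 driven reporter signal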
# [17] = cytotoxicity dependent on PAX8, dose response, cell-based, plate reader, dry powder (AID 743049); format: functional
# [18] = cytotoxicity toward NIH3T3 fibroblasts, dose response, counter-screen, cell-based, ATP luminescence, mouse fibroblasts (AID 2010); format: functional;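 also: cells exposed to compound for about 90 hours before reading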
# [19] = inhibitors of intracellular T. cruzi replication, confirmation, NIH3T3 host cells, beta-gal luminescence (AID 2044); format: functional, cell-based;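 also: intracellular parasites grown in NIH/3T3 mouse fibroblasts as host cells; luminescent beta-galactosidase reporter signal from transgenic T. cruzi replicating inside host cells; inhibitors lower the luminescence signal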
# [20] = Luminescence Cell-Based Secondary HTS screen to identify cytotoxic compounds of NIH3T3 cells. [Related pubchem assays: 1885, 1968 ]; format: functional
# [21] = ADAM10 protease inhibitors, dose response, selectivity assay for ADAM17 exosite inhibitor project, biochemical, FRET peptide substrate, recombinant human ADAM10 (AID 743259);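 also: ADAM10 enzyme cleaving a FRET peptide substrate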
# [22] = target: Disintegrin and metalloproteinase domain-containing protein 17 (Homo sapiens, UniProt P78536); assay: exosite inhibitors of ADAM17, dose response, biochemical (AID 743260)
# Sequence of Disintegrin and metalloproteinase domain-containing protein 17 (P78536 whole entry, the tested form may be a part): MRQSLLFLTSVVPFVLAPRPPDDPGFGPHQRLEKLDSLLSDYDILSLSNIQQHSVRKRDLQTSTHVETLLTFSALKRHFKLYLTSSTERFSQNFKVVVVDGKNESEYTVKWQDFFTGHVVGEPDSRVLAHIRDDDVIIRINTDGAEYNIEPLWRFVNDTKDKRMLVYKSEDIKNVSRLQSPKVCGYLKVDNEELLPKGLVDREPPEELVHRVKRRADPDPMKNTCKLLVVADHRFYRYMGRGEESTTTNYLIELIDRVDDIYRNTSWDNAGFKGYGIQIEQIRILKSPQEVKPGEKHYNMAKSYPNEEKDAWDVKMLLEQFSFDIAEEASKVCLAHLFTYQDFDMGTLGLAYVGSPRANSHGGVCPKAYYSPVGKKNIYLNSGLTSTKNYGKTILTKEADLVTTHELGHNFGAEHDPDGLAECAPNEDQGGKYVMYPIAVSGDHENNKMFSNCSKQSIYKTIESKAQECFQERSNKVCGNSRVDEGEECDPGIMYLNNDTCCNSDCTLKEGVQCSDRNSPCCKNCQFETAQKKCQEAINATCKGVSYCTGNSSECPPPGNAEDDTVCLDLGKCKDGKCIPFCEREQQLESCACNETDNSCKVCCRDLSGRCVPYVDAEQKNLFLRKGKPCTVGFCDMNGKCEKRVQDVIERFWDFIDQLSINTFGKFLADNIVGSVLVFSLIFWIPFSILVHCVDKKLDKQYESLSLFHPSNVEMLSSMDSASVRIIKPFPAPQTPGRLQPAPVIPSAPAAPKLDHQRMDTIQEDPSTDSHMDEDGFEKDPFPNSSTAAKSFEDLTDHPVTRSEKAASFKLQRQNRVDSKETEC
compound,measurement,setting,value
O=C1c2ccccc2C(=O)C1c1ccc2ccccc2n1,EC50,[1],7.02 µM (active)
same,EC50,[2],> 300 µM (not active)
same,IC50,[3],> 67.5 µM (inactive)
same,EC50,[4],3.11 µM (active)
same,EC50,[5],> 300 µM (not active)
same,EC50,[6],> 67.5 µM (inactive)
same,EC50,cells,> 67.5 µM (inactive)
CCNC(=O)[C@H]1[C@H](CO)[C@H]2Cn3c(ccc(/C=C/c4ccccc4)c3=O)[C@@H]1N2C(=O)C1CCCC1,AC50,[7],7.81 µM (active)
COc1ccc(S(=O)(=O)N(C)C[C@@H]2Oc3ncccc3C(=O)N([C@H](C)CO)C[C@@H]2C)cc1,AC50,[7],8.41 µM (active)
COc1cc(Nc2c(C#N)cnc3cc(OCCCN4CCN(C)CC4)c(OC)cc23)c(Cl)cc1Cl,IC50,[8],25.1 µM (inactive)
same,IC50,[9],> 40 µM (inactive)
O=[N+]([O-])c1ccc(Cl)c2c1C1C=CCC1C(c1ccccn1)N2 (configuration not stated),IC50,Genome polyprotein,> 49.8 µM (not active)
COC(=O)C1=C(C)N(Cc2cccc(C(F)(F)F)c2)C(NCc2cccc(C(F)(F)F)c2)=NC1c1ccccc1C(F)(F)F (configuration not stated),IC50,[10],> 96.6 µM (inactive)
Cc1ccc(S(=O)(=O)Nc2ccc3c(c2)C(=O)N([C@@H](C)CO)C[C@H](C)[C@@H](CN(C)C(=O)Nc2cccc4ccccc24)OCCCC[C@@H](C)O3)cc1,AC50,[11],22.8 µM (active)
same,AC50,[12],37.3 µM (active)
same,AC50,[13],8.21 µM (active)
same,AC50,[14],2.1 nM (active)
same,AC50,[15],13.3 µM (active)
same,AC50,Paired box protein Pax-8,4.15 µM (active)
same,AC50,[16],7.25 µM (active)
same,AC50,[17],18.2 µM (active)
COCc1cc(CN2CCCC(CNC(=O)c3ccc(F)cc3)C2)ccc1OC (configuration not stated),EC50,[18],> 60 µM (not active)
same,EC50,[19],118 nM (active)
same,EC50,[20],> 195 µM (not active)
CCC(C)NC(=O)C1CCN(S(=O)(=O)c2ccc3[nH]c(=O)oc3c2)CC1 (configuration not stated),IC50,[10],19.7 µM (inactive)
Cc1ccc(S(=O)(=O)N2C[C@H]3C(=O)C[C@@H](c4ccccc4)N(S(=O)(=O)c4ccc(C)cc4)[C@H]3C[C@H]2c2cccc3ccccc23)cc1,IC50,[21],> 69.5 µM (inactive)
same,IC50,[22],> 69.5 µM (inactive)
